Row | SMILES | melting point [°C]
1 | Cc1ccccc1NC(=O)Nc1ccc(CC(=O)NC2(c3cc(CCC(=O)O)on3)CCCC2)cc1 [Example 9, 3-[3-(1-{2-[4-(3-o-Tolyl-ureido)-phenyl]-acetylamino}-cyclopentyl)-isoxazol-5-yl]-propionic acid] | 195 to 197
2 | CC(C)CC(NC(=O)Cc1ccc(NC(=O)Nc2ccccc2)cc1)c1ncc(CCC(=O)O)s1 (stereo not shown) [Example 22, 3-[2-(3-Methyl-1-{2-[4-(3-phenyl-ureido)-phenyl]-acetylamino}-butyl)-thiazol-5-yl]-propionic acid] | 146 to 148
3 | CCOC(=O)CC(=O)c1cc(C(CC(C)C)NC(=O)Cc2ccc(NC(=O)Nc3ccccc3Cl)cc2)no1 (stereo not shown) [Example 26, 3-{3-[1-(2-{4-[3-(2-Chloro-phenyl)-ureido]-phenyl}-acetylamino)-3-methyl-butyl]-isoxazol-5-yl}-3-oxo-propionic acid ethyl ester] | 150 to 152
4 | COc1ccccc1NC(=O)Nc1ccc(CC(=O)NC(CC(C)C)c2ncc(CCC(=O)O)s2)cc1 (stereo not shown) [Example 16, 3-{2-[1-(2-{4-[3-(2-Methoxy-phenyl)-ureido]-phenyl}-acetylamino)-3-methyl-butyl]-thiazol-5-yl}-propionic acid] | 197 to 198
5 | Cc1ccccc1NC(=O)Nc1ccc(CC(=O)NC(CC(C)C)c2cc(/C=C/C(=O)O)on2)cc1 (stereo not shown) [Example 18, 3-[3-(3-Methyl-1-{2-[4-(3-o-tolyl-ureido)-phenyl]-acetylamino}-butyl)-isoxazol-5-yl]-acrylic acid] | 136 to 138
6 | Cc1ccccc1NC(=O)Nc1ccc(CC(=O)N2CCN(CCC(=O)O)C(=O)C2Cc2ccccc2)cc1 (stereo not shown) [Example 4, (3-Benzyl-2-oxo-4-{[4-(3-o-tolyl-ureido)-phenyl]-acetyl}-piperazin-1-yl)-propionic acid] | 103 to 105
7 | CC(C)CC(NC(=O)Cc1ccc(NC(=O)Nc2ccccc2Cl)cc1)c1cc(CCC(=O)O)on1 (stereo not shown) [Example 24, 3-{3-[1-(2-{4-[3-(2-Chloro-phenyl)-ureido]-phenyl}-acetylamino)-3-methyl-butyl]-isoxazol-5-yl}propionic acid] | 143 to 145
8 | CC(C)CC(NC(=O)Cc1ccc(NC(=O)Nc2ccccn2)cc1)c1ncc(CCC(=O)O)s1 (stereo not shown) [Example 11, [2-(3-Methyl-1-{2-[4-(3-pyridin-2-yl-ureido)-phenyl]-acetylamino}-butyl)-thiazol-5-yl]-propionic acid] | 173 to 175
9 | Cc1ccccc1NC(=O)Nc1ccc(CC(=O)NC(CC(C)C)C2=NOC(CCC(=O)O)(CCC(=O)O)C2)cc1 (stereo not shown) [Example 6, 3-[5-(2-Carboxy-ethyl)-3-(3-methyl-1-{2-[4-(3-o-tolyl-ureido)-phenyl]-acetylamino}-butyl)-4,5dihydro-isoxazol-5-yl]-propionic acid] | 173 to 175
10 | Cc1ccccc1NC(=O)Nc1ccc(CC(=O)NC(CC(C)C)c2ncc(CCC(=O)O)o2)cc1 (stereo not shown) [Example 8, [2-(3-Methyl-1-{2-[4-(3-o-tolyl-ureido)-phenyl]-acetylamino}-butyl)oxazol-5-yl]-propionic acid] | 168 to 170
11 | CC(C)CC(NC(=O)Cc1ccc(NC(=O)Nc2ccccn2)cc1)c1cc(CCC(=O)O)on1 (stereo not shown) [Example 10, [3-(3-Methyl-1-{2-[4-(3-pyridin-2-yl-ureido)-phenyl]-acetylamino}-butyl)-isoxazol-5-yl]-propionic acid] | 159 to 161

Other lines, results leading:

Row | melting point [°C] | SMILES
12 | 83 to 85 | CC(C)CC(NC(=O)Cc1ccc(NC(=O)Nc2ccccc2F)cc1)c1ncc(CCC(=O)O)s1 (stereo not shown) [Example 17, 3-{2-[1-(2-{4-[3-(2-Fluoro-phenyl)-ureido]-phenyl}-acetylamino)-3-methyl-butyl]-thiazol-5-yl}-propionic acid]
13 | 160 to 162 | Cc1cccc(Cl)c1NC(=O)Nc1ccc(CC(=O)NC(CC(C)C)c2ncc(CCC(=O)O)s2)cc1 (stereo not shown) [Example 21, 3-{2-[1-(2-{4-[3-(2-Chloro-6-methyl-phenyl)-ureido]-phenyl}-acetylamino)-3-methyl-butyl]-thiazol-5-yl}-propionic acid]
14 | 125 to 127 | Cc1cccc(C)c1NC(=O)Nc1ccc(CC(=O)NC(CC(C)C)c2ncc(CCC(=O)O)s2)cc1 (stereo not shown) [Example 20, 3-{2-[1-(2-{4-[3-(2,6-Dimethyl-phenyl)-ureido]-phenyl}-acetylamino)-3-methyl-butyl]-thiazol-5-yl}-propionic acid]
15 | 173 to 175 | CC(C)CC(NC(=O)Cc1ccc(NC(=O)Nc2ccccc2Cl)cc1)c1ncc(CCC(=O)O)s1 (stereo not shown) [Example 15, 3-{2-[1-(2-{4-[3-(2-Chloro-phenyl)-ureido]-phenyl}-acetylamino)-3-methyl-butyl]-thiazol-5-yl}-propionic acid]
16 | 148 to 150 | CC(C)CC(NC(=O)Cc1ccc(NC(=O)Nc2c(Cl)cccc2Cl)cc1)c1ncc(CCC(=O)O)s1 (stereo not shown) [Example 19, 3-{2-[1-(2-{4-[3-(2,6-Dichloro-phenyl)-ureido]-phenyl}-acetylamino)-3-methyl-butyl]-thiazol-5-yl}-propionic acid]
